Test results as given in ChEMBL document CHEMBL1201862, “PubChem BioAssay data set” (2004).
Activity calls are given as the source filed them.

Tests used:
[1] = cytotoxicity in HEK-293T cells, dose response, cytotoxicity control for BCR NF-kB inhibitor project, luminescence, B-cell screen hits (AID 489021); assay type: functional, cell-based;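 note: HEK-293T cells carrying an NF-kB luciferase reporter; cells exposed to compound for about 14 hours before viability readout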
[2] = inhibitors of SNCA 5'UTR-driven reporter translation, confirmation, H4 neuroglioma cells, luminescence (AID 1988); assay type: functional, cell-based
[3] = inhibitors of firefly luciferase expression or activity, dose response, H4 neuroglioma cells, luminescence (AID 1990); assay type: functional, cell-based
[4] = P. falciparum 3D7-ScDHODH growth inhibitors, dose response, SYBR Green, dry powder samples (AID 1159570); assay type: functional, cell-based;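 note: parasite growth measured after 72 hours of compound exposure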
[5] = P. falciparum Dd2 growth inhibitors, dose response, SYBR Green, dry powder samples (AID 1159566); assay type: functional, cell-based;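 note: potency for growth inhibition with lower SYBR green DNA signal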
[6] = P. falciparum Dd2 growth inhibitors, dose response, SYBR Green, cherry-picked samples (AID 1159567); assay type: functional, cell-based
[7] = P. falciparum ATP4 D1247Y mutant growth inhibitors, dose response, NITD609-resistant line, SYBR Green, dry powder (AID 1159571); assay type: functional, cell-based;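 note: parasites synchronized at ring stage by sorbitol before testing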
H9c2 = experiment: cells; assay type: functional, cell-based; details: Rattus norvegicus, H9c2, Myocardium;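 note: confirmatory concentration-response retest of ultra-high-throughput screening hits for modulation of myocardial damage; cell death induced by hydrogen peroxide oxidative stress; compound pretreatment for 60 min then peroxide exposure for 2 h; potency is for protecting the cells against peroxide damage rather than for killing them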
[8] = target: Luciferin 4-monooxygenase (Photinus pyralis, UniProt P08659); experiment: firefly luciferase enzyme inhibitors, dose response, biochemical, luminescence (AID 1891)
[9] = Luminescence Cell-Based Dose Confirmation HTS to Identify Inhibitors of Platelet Dense Granule Release. [Related pubchem assays: 1663 (Primary HTS), 1678 (Summary of Project)]; assay type: functional
[10] = target: T1, Short transient receptor potential channel 4 (Mus musculus, UniProt Q9QUQ5); experiment: mouse TRPC4 channel activators, dose response, cell-based, HEK293 TRPC4/mu-opioid, Fluo-4 calcium (AID 434937); assay type: functional
T1 sequence (Q9QUQ5 whole entry): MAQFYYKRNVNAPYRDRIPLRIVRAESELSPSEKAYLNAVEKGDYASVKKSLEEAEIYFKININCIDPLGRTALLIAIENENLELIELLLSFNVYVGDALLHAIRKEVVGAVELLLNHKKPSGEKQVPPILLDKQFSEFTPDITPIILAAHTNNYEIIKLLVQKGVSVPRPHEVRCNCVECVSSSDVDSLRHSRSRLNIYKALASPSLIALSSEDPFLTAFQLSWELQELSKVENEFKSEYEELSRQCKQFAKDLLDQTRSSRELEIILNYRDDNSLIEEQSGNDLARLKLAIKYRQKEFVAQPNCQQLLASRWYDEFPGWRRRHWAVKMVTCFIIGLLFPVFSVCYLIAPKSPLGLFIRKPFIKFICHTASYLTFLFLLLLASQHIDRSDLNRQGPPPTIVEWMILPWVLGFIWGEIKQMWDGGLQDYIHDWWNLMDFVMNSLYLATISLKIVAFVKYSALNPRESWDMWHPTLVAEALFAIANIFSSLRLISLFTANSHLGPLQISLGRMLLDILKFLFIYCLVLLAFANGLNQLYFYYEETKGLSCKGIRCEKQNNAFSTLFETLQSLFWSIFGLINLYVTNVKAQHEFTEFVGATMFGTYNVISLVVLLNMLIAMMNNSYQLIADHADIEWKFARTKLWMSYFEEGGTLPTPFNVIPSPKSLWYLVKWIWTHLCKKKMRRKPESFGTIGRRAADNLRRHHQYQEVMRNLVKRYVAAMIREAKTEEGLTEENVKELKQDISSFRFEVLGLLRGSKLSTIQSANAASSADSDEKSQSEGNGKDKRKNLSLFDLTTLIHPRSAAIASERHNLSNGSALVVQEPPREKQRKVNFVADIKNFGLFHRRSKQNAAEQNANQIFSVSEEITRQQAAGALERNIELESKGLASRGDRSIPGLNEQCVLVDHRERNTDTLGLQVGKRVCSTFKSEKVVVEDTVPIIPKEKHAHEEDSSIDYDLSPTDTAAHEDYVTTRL

[11] = cytotoxicity toward NIH3T3 fibroblasts, dose response, counter-screen, cell-based, ATP luminescence, mouse fibroblasts (AID 2010); assay type: functional;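 note: cells exposed to compound for about 90 hours before reading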
[12] = inhibitors of intracellular T. cruzi replication, confirmation, NIH3T3 host cells, beta-gal luminescence (AID 2044); assay type: functional, cell-based;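 note: intracellular parasites grown in NIH/3T3 mouse fibroblasts as host cells; luminescent beta-galactosidase reporter signal from transgenic T. cruzi replicating inside host cells; inhibitors lower the luminescence signal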
Streptococcus = experiment: Group A Streptococcus viability loss, dose response, counter-screen for streptokinase expression inhibitor project, luminescence, BacTiterGlo (AID 1915); assay type: functional, organism-based;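 note: potency for reduction of bacterial viability or growth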
[13] = tested on: Streptococcus sp. 'group A'; experiment: growth inhibition of control SK(-) GAS strain, dose response, counter-screen for streptokinase expression inhibitor project, luminescence, kanamycin, BacTiterGlo, confirmation (AID 1900); assay type: functional, organism-based
[14] = Luminescence Cell-Based Dose Response HTS to Identify Inhibitors of 5'UTR Stem-Loop Driven Prion Protein mRNA Translation in H4 Neuroglioblastoma Cells. [Related pubchem assays: 1827 (Project Summary), 1813 (Primary HTS)]; assay type: functional
[15] = target: T2, DNA repair protein RAD52 homolog (Homo sapiens, UniProt P43351); assay type: functional, biochemical
T2 sequence (P43351 whole entry): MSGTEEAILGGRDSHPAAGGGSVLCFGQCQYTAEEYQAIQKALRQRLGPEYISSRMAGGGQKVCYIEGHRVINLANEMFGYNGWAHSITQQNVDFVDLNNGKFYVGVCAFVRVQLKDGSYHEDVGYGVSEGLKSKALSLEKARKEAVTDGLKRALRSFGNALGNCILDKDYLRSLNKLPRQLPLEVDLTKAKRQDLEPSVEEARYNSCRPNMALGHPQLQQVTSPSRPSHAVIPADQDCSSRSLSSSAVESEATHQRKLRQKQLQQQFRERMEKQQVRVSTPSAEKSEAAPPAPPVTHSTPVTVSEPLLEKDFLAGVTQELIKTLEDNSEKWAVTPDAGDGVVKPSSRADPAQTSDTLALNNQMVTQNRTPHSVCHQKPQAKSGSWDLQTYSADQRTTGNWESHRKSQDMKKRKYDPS

Paired box protein Pax-8 = Paired box protein Pax-8 (Homo sapiens, UniProt Q06710); experiment: inhibitors of PAX8-driven TPO luciferase reporter, dose response, RMG-I cells, cherry-pick (AID 687027); assay type: functional, cell-based;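 note: luciferase reporter driven by Pax8 target thyroperoxidase promoter measured by SteadyGlo luminescence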
[16] = cytotoxicity in OVCAR8 ovarian cancer cells, dose response, PAX8 project, cell-based, plate reader, dry powder samples (AID 743197); assay type: functional; details: OVCAR-8
[17] = NIH:OVCAR-3 ovarian cancer cell cytotoxicity, dose response, PAX8 inhibitor project, plate reader, dry powder samples (AID 743044); assay type: functional, cell-based
[18] = target: T3, Carboxy-terminal domain RNA polymerase II polypeptide A small phosphatase 1 (Homo sapiens, UniProt Q9GZU7); experiment: inhibitors of CTDSP1, concentration-response testing, biochemical assay, absorbance-based, actives from ultra-high-throughput screening (AID 540297); assay type: functional
T3 sequence (Q9GZU7 whole entry): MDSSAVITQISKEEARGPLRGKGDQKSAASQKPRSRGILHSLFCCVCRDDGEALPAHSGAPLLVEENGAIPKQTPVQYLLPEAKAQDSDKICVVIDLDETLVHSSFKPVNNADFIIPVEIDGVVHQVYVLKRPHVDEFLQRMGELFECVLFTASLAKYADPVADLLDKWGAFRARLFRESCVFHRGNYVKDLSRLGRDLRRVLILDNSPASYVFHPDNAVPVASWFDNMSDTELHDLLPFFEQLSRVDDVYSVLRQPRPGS

Genome polyprotein = Genome polyprotein (dengue virus type 2, UniProt P29990); experiment: Dengue-2 NS5 methyltransferase inhibitors, primary screen, biochemical, confirmation dose response (AID 588689); assay type: functional
[19] = target: T4, Ubiquitin-conjugating enzyme E2 N (Homo sapiens, UniProt P61088); assay type: functional;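 note: Dose-response confirmation in a TR-FRET assay detecting UBC13-driven polyubiquitin chain formation, inhibition measured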
T4 sequence (P61088 whole entry): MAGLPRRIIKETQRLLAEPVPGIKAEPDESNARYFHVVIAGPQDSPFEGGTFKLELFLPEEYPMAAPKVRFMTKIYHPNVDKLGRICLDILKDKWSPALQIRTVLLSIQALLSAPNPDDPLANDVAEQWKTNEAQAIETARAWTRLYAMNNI

cells = assay type: functional
[20] = THP-1 cell cytotoxicity, dose response, cytotoxicity control for non-replicating M. tuberculosis project (AID 489025); assay type: functional
[21] = Vero E6 cell cytotoxicity, dose response, cytotoxicity control for non-replicating M. tuberculosis project, secondary assay (AID 492998); assay type: functional, VeroE6; details: Vero C1008

Sequence of Paired box protein Pax-8 (Q06710 whole entry): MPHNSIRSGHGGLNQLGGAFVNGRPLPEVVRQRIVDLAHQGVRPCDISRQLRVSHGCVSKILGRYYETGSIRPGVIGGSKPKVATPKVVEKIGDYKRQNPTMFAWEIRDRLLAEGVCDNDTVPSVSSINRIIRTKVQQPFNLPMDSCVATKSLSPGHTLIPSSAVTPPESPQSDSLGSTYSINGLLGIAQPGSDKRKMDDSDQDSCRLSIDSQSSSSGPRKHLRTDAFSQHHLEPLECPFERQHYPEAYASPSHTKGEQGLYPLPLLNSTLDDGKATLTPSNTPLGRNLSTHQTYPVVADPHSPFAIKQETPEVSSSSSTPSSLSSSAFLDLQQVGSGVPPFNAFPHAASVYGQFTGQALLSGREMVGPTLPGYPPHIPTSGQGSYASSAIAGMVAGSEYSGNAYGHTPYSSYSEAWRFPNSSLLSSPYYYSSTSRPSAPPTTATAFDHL
Sequence of Genome polyprotein (P29990 2492-3391 limits assumed): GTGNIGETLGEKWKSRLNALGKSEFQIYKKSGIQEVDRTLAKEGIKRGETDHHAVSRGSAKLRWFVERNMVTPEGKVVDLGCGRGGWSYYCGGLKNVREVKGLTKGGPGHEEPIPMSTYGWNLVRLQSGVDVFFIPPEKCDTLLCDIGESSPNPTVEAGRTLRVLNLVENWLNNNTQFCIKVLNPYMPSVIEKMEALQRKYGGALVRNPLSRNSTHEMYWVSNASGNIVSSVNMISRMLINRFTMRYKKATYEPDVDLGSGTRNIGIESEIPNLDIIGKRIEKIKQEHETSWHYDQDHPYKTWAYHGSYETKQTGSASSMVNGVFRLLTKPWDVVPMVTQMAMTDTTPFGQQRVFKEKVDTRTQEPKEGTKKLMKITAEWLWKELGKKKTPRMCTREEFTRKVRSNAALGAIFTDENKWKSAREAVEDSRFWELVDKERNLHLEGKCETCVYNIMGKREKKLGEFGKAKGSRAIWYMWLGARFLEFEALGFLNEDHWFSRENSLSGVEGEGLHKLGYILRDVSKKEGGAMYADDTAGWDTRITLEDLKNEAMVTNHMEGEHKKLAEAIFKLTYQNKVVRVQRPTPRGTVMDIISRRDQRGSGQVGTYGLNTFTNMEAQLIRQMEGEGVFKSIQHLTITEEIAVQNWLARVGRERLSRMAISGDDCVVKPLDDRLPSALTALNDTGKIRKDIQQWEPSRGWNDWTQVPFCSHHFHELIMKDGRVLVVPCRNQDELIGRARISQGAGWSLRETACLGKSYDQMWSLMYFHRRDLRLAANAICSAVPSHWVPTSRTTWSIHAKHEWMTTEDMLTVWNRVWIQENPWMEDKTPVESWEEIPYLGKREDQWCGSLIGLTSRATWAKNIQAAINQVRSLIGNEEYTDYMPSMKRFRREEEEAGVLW
Sequence of Luciferin 4-monooxygenase (P08659 whole entry): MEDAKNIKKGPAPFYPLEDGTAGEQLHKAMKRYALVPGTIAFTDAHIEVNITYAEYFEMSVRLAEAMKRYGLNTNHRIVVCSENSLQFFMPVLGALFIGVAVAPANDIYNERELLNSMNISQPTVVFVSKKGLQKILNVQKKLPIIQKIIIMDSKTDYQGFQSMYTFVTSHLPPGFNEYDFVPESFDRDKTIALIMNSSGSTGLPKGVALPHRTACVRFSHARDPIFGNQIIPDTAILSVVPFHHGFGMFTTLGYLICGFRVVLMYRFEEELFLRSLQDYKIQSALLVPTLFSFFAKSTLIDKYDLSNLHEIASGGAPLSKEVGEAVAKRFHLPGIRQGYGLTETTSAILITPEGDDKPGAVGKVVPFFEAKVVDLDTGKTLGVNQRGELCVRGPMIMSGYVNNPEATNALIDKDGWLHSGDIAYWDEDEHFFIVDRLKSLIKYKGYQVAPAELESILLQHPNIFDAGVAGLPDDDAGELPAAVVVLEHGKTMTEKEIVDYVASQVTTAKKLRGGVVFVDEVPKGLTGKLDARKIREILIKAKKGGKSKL

Cc1c(CCC(=O)N2CCC[C@H]2C(=O)O)c(=O)oc2cc3oc4c(c3cc12)CCCC4
IC50 [1]: > 80 µM (inactive)
EC50 [2]: 10.2 µM (active)
EC50 [3]: 8.13 µM (active)

CCCc1cn(CC[C@@H]2CC[C@H](NS(=O)(=O)c3ccc(-c4ccccc4)cc3)[C@H](CO)O2)nn1
AC50 [4]: 916 nM (active)
AC50 [5]: 332 nM (active)
AC50 [6]: 1.39 µM (active)
AC50 [7]: 883 nM (active)

Cc1ccc(S(=O)(=O)N2CCN(C(=O)c3cc(O)nc4ccccc34)CC2)c(C)c1
IC50 (H9c2): > 79 µM (inactive)

CCN1C(=O)Nc2cccc3cccc1c23
EC50 [8]: > 112 µM (not active)
IC50 [1]: > 80 µM (inactive)
EC50 [9]: 7.12 µM (active)

Clc1cccc(OCCN2CCNCC2)c1
EC50 [10]: 841 nM (active)
EC50 [11]: > 60 µM (not active)
EC50 [12]: 744 nM (active)

CCCOc1ccc(C(=O)NNC(=S)NC(=O)c2ccccc2)cc1
EC50 (Streptococcus): 762 nM (active)
EC50 [13]: 540 nM (active)
EC50 [10]: 3350 nM (active)
EC50 [2]: > 120 µM (not active)
EC50 [3]: 12.5 µM (active)
EC50 [14]: 14.5 µM (active)

CCCn1c(=O)c(C(=O)Nc2ccccc2)c(O)c2ccccc21
IC50 (H9c2): 9.48 µM (active)

COc1ccc(/C=N/NC(=O)C2COc3ccccc3O2)cc1OC (centres undefined)
EC50 [10]: 841 nM (active)

COc1ccc(-c2cc3nc(NCCCN(C)C)n(C)c(=O)c3s2)c(C)c1
AC50 [15]: 29.3 µM (active)

Cc1ccc(S(=O)(=O)Nc2ccc3c(c2)C(=O)N([C@@H](C)CO)C[C@H](C)[C@H](CN(C)Cc2ccc(C(F)(F)F)cc2)OCCCC[C@@H](C)O3)cc1
AC50 (Paired box protein Pax-8): 7.03 µM (active)
AC50 [16]: > 70 µM (inactive)

C[C@H]1CCCCO[C@H](CN(C)S(=O)(=O)c2ccc(F)cc2)[C@@H](C)CN([C@@H](C)CO)C(=O)c2cc(NS(=O)(=O)c3ccc(Cl)cc3)ccc2O1
AC50 [17]: 49.2 µM (active)
AC50 (Paired box protein Pax-8): 5.92 µM (active)
AC50 [16]: 60.6 µM (active)

CSc1ccc(CCNC(=O)CSc2ccsc2[N+](=O)[O-])cc1
IC50 [18]: 7.88 µM (active)

COc1cc(Nc2nc3ccccc3n3nnnc23)cc(OC)c1OC
IC50 (H9c2): > 79 µM (inactive)

O=C(CN1C(=O)/C(=C2/SC(=S)N(CCS(=O)(=O)O)C2=O)c2ccccc21)Nc1cccc(Br)c1
IC50 (Genome polyprotein): 61.6 µM (active)
IC50 [18]: 3.22 µM (active)

O=C(NCCCN1CCN(CCCNC(=O)c2ccc3c(c2)OCO3)CC1)c1ccc2c(c1)OCO2
EC50 [10]: 267 nM (active)

CCCCCc1c(O)nc(SCCN(C)C)nc1O
EC50 [10]: 4220 nM (active)

COc1cc(/C=C2/SC(=S)N(CCC(=O)Nc3ccc(C(=O)O)cc3)C2=O)cc(OC)c1OC
IC50 [18]: 6.91 µM (active)

CC[C@H](C)Cc1cn([C@@H](CCCCN)C(=O)NCCCCCCCCCCC(=O)N2CCNCC2)nn1
AC50 [15]: 13.2 µM (active)
IC50 [19]: > 20 µM (inactive)

CC1(C)CC2CC(C)(CN2C(=O)COC(=O)Cn2[nH]c(=O)c3ccccc3c2=O)C1 (centres undefined)
IC50 (H9c2): 12.1 µM (active)

CC(C)NC(=O)N(C)C[C@H]1OCCCC[C@@H](C)Oc2ccc(NC(=O)Nc3ccc(C(F)(F)F)cc3)cc2C(=O)N([C@@H](C)CO)C[C@H]1C
AC50 [17]: 32.7 µM (active)
AC50 (Paired box protein Pax-8): 8.11 µM (active)
AC50 [16]: 48.9 µM (active)

CC(=O)N(CCN(C)C)c1nc2cc3c(cc2s1)OCCO3
AC50 [15]: 11.4 µM (active)

NC(=O)c1cc2ccccc2o/c1=N\NC(=O)c1ccc(F)cc1
IC50 (H9c2): > 79 µM (inactive)

Cc1cc(N2CCN(c3ccccc3)CC2)nc(-n2nc(C)cc2C)n1
IC50 (cells): 940 nM (active)
CC50 [20]: > 40 µM (active)
CC50 [21]: > 20 µM (active)

C[C@H]1CN([C@@H](C)CO)C(=O)c2c(c3ccccc3n2C)-c2ccccc2CO[C@@H]1CN(C)S(=O)(=O)c1ccc(F)cc1
AC50 [4]: 1400 nM (active)
AC50 [5]: 755 nM (active)
AC50 [6]: 1.89 µM (active)
AC50 [7]: 1150 nM (active)

O=C(C1CCCCC1)N1[C@H](CO)[C@@H](c2ccccc2)C12CN(Cc1cccc(Cl)c1)C2
AC50 [4]: 651 nM (active)
AC50 [5]: 353 nM (active)
AC50 [6]: 1.43 µM (active)
AC50 [7]: 606 nM (active)

Cc1ccc(S(=O)(=O)N(C)C[C@H]2OCc3ccccc3-c3c(n(C)c4ccccc34)C(=O)N([C@@H](C)CO)C[C@@H]2C)cc1
AC50 [4]: 1210 nM (active)
AC50 [5]: 818 nM (active)
AC50 [6]: 1.53 µM (active)
AC50 [7]: 807 nM (active)

COCCN1CCN(c2c3c(nc4cc(-c5cccc(F)c5)nn24)CCC3)CC1
IC50 (H9c2): 6.93 µM (active)
